Measured values as given in article PMC2922380, “Binding of Protein Kinase Inhibitors to Synapsin I Inferred from Pair-Wise Binding Site Similarity Measurements” (PLoS ONE, 2010).
Where two headings read alike, the source gives them in different places.

How the values were obtained:
bovine synapsin I = bovine synapsin I (Bos taurus, UniProt P17599); experiment: ATP-γ35S binding competition assay on purified synapsin I; settings: for maximal inhibition of ATP-γ35S binding to synapsin I: from curve fitting (lower plateau); for binding to synapsin I (result in words): ATP-γ35S competition, inhibitor 0.1–30 µM
Method: Synapsin I was purified from bovine brain [71] and stored in liquid nitrogen in 200 mM NaCl, 25 mM TrisCl, pH 7.4. […] ATP-γ^35S binding was quantified as previously described. Briefly, aliquots of the samples were spotted onto squares of phosphocellulose paper (Upstate/Millipore, Billerica, MA). The paper squares were extensively washed with deionized water for 30 min, air-dried and analyzed for radioactivity by using the Perkin Elmer Cyclone Plus Phosphor Imager. After subtraction of the background values (samples with no synapsin I), data from individual competition curves were fitted with a sigmoidal dose-response function (f = min +(max–min)/(1+10∧((logEC50-x)*Hillslope)) using the Sigmaplot 8.0 software (SPSS Inc., Chicago, IL) to yield IC50 and maximal inhibition values. Data in the plots are the means ± sem of at least 5 independent experiments.

synapsin I / F-actin = experiment: F-actin bundling activity of synapsin I, low speed sedimentation assay; assay type: biochemical, bovine; settings: staurosporine 5 µM; synapsin I 0.5 µM, F-actin 5 µM; vs samples with F-actin and synapsin I only
Method: Actin was purified from acetone powder of rabbit skeletal muscles, [96] and stored in liquid nitrogen in 2 mM Tris pH 8, 0.2 mM ATP, 0,2 mM CaCl2, 0.125 mM β-mercaptoethanol and 0.005% NaN3 (G-buffer). Before the experiments, both G-actin and synapsin I were prespun for 1 h at 4°C at 300,000× g to remove large aggregates. G-actin was polymerized at room temperature for 1 h in the presence of 100 mM KCl, 1.2 mM MgCl2. […] Pellets were solubilized in sample buffer and analyzed by sodium dodecylsulfate polyacrylamide gel electrophoresis (SDS-PAGE) using 10% acrylamide in the resolving gel. Gels were fixed, stained with Coomassie Blue and destained. Densitometric analysis of the actin bands was carried out by using the ImageQuant system (GE Healthcare) followed by densitometric analysis of the fluorograms and by data interpolation into a standard curve of purified G-actin run in parallel with the unknown samples.

[1] = ATP-γ35S 0.2 µM, purified bovine synapsin I 0.5 µM, means ± sem from 5 independent experiments, read-out: IC50, inhibition of ATP-γ35S binding to synapsin I
[2] = ATP-γ35S 0.2 µM, purified bovine synapsin I 0.5 µM

| Compound | IC50 (bovine synapsin I; [1]) [nM] | maximal inhibition of ATP-γ35S binding to synapsin I (bovine synapsin I; [2]) | binding to synapsin I (result in words) (bovine synapsin I) | other results |
| --- | --- | --- | --- | --- |
| O=S(=O)(NCCNC/C=C/c1ccc(Br)cc1)c1cccc2cnccc12 [H-89] | > 30000 |  |  |  |
| Nc1ncnc2c1ncn2[C@@H]1O[C@H](COP(=O)(O)OP(=O)(O)OP(=O)(O)O)[C@@H](O)[C@H]1O [ATP] | 70 ± 10 | 95.8±2.2% |  |  |
| O=c1c(O)c(-c2ccc(O)c(O)c2)oc2cc(O)c(O)c(O)c12 [quercetagetin] |  | 88.3±4.9% |  | IC50 (bovine synapsin I): 150 nM |
| O=C(O)CN1C(=O)c2c(I)c(I)c(I)c(I)c2C1=O [compound 70159800251] | 500 | ca. 70% |  |  |
| Cc1nc2sccn2c(=O)c1CCN1CCC(=C(c2ccccc2)c2ccc(F)cc2)CC1 [R59022] |  |  | inactive |  |
| CCc1cc(-c2n[nH]c(C)c2-c2ccc3c(c2)OCCO3)c(O)cc1O [CCT018159] |  |  | inactive |  |
| novobiocin |  |  | inactive |  |
| CN[C@@H]1C[C@H]2O[C@@](C)([C@@H]1OC)n1c3ccccc3c3c4c(c5c6ccccc6n2c5c31)C(=O)NC4 [staurosporine] |  | 84.3±1.2% |  | increase in F-actin/synapsin I bundles recovered by low speed sedimentation (synapsin I / F-actin): approximately 30%; affinity to bovine synapsin I (bovine synapsin I; in vitro competition assay, as restated in Discussion): about 0.3 µM |
